According to patent US9730940B2, “Purine inhibitors of human phosphatidylinositol 3-kinase delta” (priority 2012, dated 2017):

Each compound was assayed against PI3K-delta (Homo sapiens (Human), UniProt O00329) (assay: biochemical). Settings: PI3Kdelta IC50, HTRF biochemical assay; compound form screened given.
Chain of PI3K-delta (O00329 whole entry, looked up): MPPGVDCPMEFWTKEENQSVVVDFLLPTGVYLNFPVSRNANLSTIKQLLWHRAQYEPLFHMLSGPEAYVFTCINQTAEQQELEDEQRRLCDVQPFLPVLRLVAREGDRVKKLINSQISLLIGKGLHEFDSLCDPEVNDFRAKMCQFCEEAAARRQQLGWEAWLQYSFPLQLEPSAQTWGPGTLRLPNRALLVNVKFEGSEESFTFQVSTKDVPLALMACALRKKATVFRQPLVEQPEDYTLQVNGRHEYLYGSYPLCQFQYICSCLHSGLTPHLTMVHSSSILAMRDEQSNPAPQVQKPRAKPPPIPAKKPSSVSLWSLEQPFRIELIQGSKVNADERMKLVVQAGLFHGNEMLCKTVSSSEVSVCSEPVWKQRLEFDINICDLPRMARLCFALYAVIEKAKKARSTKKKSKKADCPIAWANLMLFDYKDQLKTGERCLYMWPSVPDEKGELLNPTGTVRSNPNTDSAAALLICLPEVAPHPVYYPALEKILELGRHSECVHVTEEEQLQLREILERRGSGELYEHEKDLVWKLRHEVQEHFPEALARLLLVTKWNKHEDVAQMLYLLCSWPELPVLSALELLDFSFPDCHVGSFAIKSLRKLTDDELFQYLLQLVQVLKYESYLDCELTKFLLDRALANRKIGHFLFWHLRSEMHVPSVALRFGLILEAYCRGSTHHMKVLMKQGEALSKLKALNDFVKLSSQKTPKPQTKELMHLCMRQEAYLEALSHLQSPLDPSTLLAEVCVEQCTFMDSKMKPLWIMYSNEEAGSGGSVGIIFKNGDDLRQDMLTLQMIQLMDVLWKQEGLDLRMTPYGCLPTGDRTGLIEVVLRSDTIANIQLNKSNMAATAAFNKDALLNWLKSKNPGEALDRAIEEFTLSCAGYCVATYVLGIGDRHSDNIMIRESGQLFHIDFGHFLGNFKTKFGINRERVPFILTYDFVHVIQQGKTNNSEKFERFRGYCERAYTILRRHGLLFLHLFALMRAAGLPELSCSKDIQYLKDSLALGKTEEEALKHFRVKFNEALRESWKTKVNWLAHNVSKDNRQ
Chain of PI3K-delta (P27986 whole entry partner, looked up): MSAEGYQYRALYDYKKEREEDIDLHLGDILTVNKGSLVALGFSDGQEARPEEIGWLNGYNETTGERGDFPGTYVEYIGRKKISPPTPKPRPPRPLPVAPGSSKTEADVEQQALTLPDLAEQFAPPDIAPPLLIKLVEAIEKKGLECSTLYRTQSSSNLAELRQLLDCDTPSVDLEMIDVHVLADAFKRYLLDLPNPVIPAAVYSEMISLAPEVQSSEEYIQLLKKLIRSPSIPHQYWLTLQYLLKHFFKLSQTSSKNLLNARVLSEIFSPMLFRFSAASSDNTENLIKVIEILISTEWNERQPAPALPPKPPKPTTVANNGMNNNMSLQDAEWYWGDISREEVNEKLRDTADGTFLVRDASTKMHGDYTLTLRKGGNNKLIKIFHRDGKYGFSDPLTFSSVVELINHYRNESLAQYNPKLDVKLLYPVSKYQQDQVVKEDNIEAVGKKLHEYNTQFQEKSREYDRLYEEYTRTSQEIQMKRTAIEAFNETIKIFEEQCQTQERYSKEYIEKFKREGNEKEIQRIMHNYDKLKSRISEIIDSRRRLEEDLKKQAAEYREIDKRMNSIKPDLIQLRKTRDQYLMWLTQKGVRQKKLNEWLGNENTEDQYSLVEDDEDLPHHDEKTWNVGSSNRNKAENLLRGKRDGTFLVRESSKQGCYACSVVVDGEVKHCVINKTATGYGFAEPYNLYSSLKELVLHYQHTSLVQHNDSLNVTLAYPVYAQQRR
Source text: HTRF PI3K Biochemical Assay to Measure Intrinsic Potency of Compound Inhibitors
The PI3-Kinase biochemical assays were developed to measure the intrinsic potency and compound dependent inhibition of the alpha, beta, delta, and gamma PI3K isoform enzymes. This assay was developed and further optimized from a kit produced by Upstate (Millipore catalog #33-047) and has been configured for HTS and SAR screening. Briefly, this procedure exploits the exquisite specificity and high affinity binding of enzyme reaction substrate phosphatidyl(3,4,5)triphosphate (PIP3) to the GRP1 pleckstrin homology (PH) domain to generate the signal. In the absence of PIP3, an HTRF (Homogeneous Time-Resolved Fluorescence energy transfer) complex is formed consisting of europium (Eu)-labeled anti-GST, GST tagged GRP1-PH domain, biotin-PIP3 and streptavidin conjugated APC. The native PIP3 produced by PI3-Kinase activity disrupts in a competitive manner the biotin-PIP3 from the PH domain, resulting in the loss of energy transfer (HTRF complex) and a decrease in the signal. The format of this assay is the same for all 4 isoforms of PI3K; the differences lie in the concentration of enzyme used to achieve robust assay window. The alpha, beta, and delta assays are run at 0.5, 1, and 0.3 nM enzymes and the gamma assay is run at 5 nM enzyme. The ATP concentration is 100 uM in the alpha, beta, and delta assays and 50 uM ATP in the gamma assay. All reactions are run at 5 uM PIP2.
Compounds are serially diluted (3-fold in 100% DMSO) across a 384-well polypropylene source plated from column 3 to column 12 and column 13 to column 22, to yield 10 concentration dose response for each test compound. Columns 1, 2, 23 and 24 contain either only DMSO or pharmacological known control inhibitor.
The PI3-Kinase biochemical assay was optimized using the HTRF kit provided by Upstate (Millipore). The assay kit contains six reagents: 1) 4× Reaction Buffer; 2) native PIP2 (substrate); 3) Stop (EDTA); 4) Detection Mix A (Streptavidin-APC); 5) Detection Mix B (Eu-labeled Anti-GST plus GST-tagged PH-domain); 6) Detection Mix C.
PI3Kinase Reaction Buffer is prepared by dilution the stock 1:4 with de-ionized water. […] Enzyme addition and compound pre-incubation are initiated by the addition of 1.25 ul of PI3K (at twice its final concentration) in the 1× reaction buffer to all wells using a BioRaptor. Plates are incubated at room temperature for 15 minutes. Reactions are initiated by addition of 1.25 ul of 2× substrate solution (PIP2 and ATP in 1× reaction buffer) using BioRaptor. Plates are incubated in humidified chamber at room temperature for one hour. Reactions are quenched by addition of 0.625 uL of stop solution to all wells using the BioRaptor. The quenched reactions are then processed to detect product formation by adding 0.625 uL of Detection Solution to all wells using the BioRaptor (Detection mix C, Detection Mix A, and Detection Mix B combined together in an 18:1:1 ratio prepared 2 hours prior to use).
The loss of the HTRF signal is due to the displacement of biotinylated-PIP3 from the PH domain by the PI3K-dependent conversion of PIP2 to PIP3. […] All data were calculated using the ratio of acceptor (APC) to donor (Europium) fluorescence in each well of the assay plate. […] An IC50 was then calculated fitting the % inhibition data to the equation: % inhibition=min+(Max−min)/1+([inhibitor]/IC50)^n) where min is the % inhibition […], max is the signal in DMSO control, and n is the Hill slope.
CCn1c(-c2cnc(C)nc2)nc2c(O[C@@H]3CN(C(=O)C4CC4)CC3(C)C)ncnc21 (racemic) [Compound 3-62, racemic-6-{[1-(cyclopropylcarbonyl)-4,4-dimethylpyrrolidin-3-yl]oxy}-9-ethyl-8-(2-methylpyrimidin-5-yl)-9H-purine] was tested, and the IC50 was 2.3 nM.
CCn1c(-c2cnc(C)nc2)nc2c(O[C@H]3CCN(C(=O)C4CC45CCCC5)C3)ncnc21 (single isomer, unassigned) [Compound 2-122, 9-ethyl-8-(2-methylpyrimidin-5-yl)-6-{[(3S)-1-((R or S)-spiro[2.4]hept-1-ylcarbonyl)pyrrolidin-3-yl]oxy}-9H-purine] showed an IC50 of 16 nM.
CCn1c(-c2cnc(C)nc2)nc2c(O[C@H]3CCN(C(=O)C4CC45CCCC5)C3)ncnc21 (single isomer, unassigned) [Compound 2-123, 9-ethyl-8-(2-methylpyrimidin-5-yl)-6-{[(3S)-1-((R or S)-spiro[2.4]hept-1-ylcarbonyl)pyrrolidin-3-yl]oxy}-9H-purine] was tested, and the IC50 was less than 1 nM.
CCn1c(-c2cnc(C)nc2)nc2c(O[C@H]3CCN(C(=O)N4CCC4C)C3)ncnc21 (single isomer, unassigned) [Compound 5-15, 9-ethyl-6-({(3S)-1-[((2R or 2S)-methylazetidin-1-yl)carbonyl]pyrrolidin-3-yl}oxy)-8-(2-methylpyrimidin-5-yl)-9H-purine] was tested, and the IC50 was 6.2 nM.

The compounds below were run against PI3K-alpha (Homo sapiens (Human), UniProt P42336) (assay: HTRF PI3K biochemical assay, alpha isoform). Settings: ratio PI3K-alpha IC50 value/PI3K-delta IC50 value.
Chain of PI3K-alpha (P42336 whole entry, looked up, canonical isoform): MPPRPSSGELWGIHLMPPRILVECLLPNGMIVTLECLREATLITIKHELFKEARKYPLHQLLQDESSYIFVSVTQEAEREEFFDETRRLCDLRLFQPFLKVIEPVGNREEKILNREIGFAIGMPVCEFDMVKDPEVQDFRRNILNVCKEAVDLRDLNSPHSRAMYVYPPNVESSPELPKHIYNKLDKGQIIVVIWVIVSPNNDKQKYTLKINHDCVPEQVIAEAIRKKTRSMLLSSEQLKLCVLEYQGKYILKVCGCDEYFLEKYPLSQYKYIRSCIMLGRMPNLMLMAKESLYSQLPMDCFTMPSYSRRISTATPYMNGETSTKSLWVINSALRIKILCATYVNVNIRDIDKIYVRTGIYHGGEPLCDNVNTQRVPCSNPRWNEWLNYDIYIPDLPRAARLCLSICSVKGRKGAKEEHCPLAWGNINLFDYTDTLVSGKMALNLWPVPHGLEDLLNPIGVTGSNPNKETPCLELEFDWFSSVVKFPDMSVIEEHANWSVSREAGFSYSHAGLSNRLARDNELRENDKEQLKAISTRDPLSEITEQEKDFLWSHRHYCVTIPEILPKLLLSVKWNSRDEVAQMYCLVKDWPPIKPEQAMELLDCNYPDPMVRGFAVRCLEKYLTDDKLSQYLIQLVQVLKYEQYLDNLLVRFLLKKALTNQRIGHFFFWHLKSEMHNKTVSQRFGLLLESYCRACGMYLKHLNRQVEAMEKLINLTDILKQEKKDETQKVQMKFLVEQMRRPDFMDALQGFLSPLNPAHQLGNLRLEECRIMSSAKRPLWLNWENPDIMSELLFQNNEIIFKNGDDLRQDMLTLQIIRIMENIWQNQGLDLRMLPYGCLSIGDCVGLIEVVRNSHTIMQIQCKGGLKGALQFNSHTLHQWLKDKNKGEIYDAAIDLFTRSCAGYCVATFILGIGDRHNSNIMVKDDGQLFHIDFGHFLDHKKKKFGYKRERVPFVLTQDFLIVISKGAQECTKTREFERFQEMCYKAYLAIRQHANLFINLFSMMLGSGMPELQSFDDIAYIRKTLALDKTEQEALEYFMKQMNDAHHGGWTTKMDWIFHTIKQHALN
Chain of PI3K-alpha (P27986 whole entry partner, looked up, canonical isoform): as the sequence (P27986 whole entry partner, looked up) above
CCn1c(-c2cnc(C)nc2)nc2c(O[C@@H]3CN(C(=O)C4CC4)CC3(C)C)ncnc21 (racemic) [Compound 3-62, racemic-6-{[1-(cyclopropylcarbonyl)-4,4-dimethylpyrrolidin-3-yl]oxy}-9-ethyl-8-(2-methylpyrimidin-5-yl)-9H-purine] was tested, and the “Relative Selectivity versus PI3Kalpha” value was greater than 10.
In the case of CCn1c(-c2cnc(C)nc2)nc2c(O[C@H]3CCN(C(=O)C4CC45CCCC5)C3)ncnc21 (single isomer, unassigned) [Compound 2-122, 9-ethyl-8-(2-methylpyrimidin-5-yl)-6-{[(3S)-1-((R or S)-spiro[2.4]hept-1-ylcarbonyl)pyrrolidin-3-yl]oxy}-9H-purine], the “Relative Selectivity versus PI3Kalpha” value is reported as greater than 10.
For CCn1c(-c2cnc(C)nc2)nc2c(O[C@H]3CCN(C(=O)C4CC45CCCC5)C3)ncnc21 (single isomer, unassigned) [Compound 2-123, 9-ethyl-8-(2-methylpyrimidin-5-yl)-6-{[(3S)-1-((R or S)-spiro[2.4]hept-1-ylcarbonyl)pyrrolidin-3-yl]oxy}-9H-purine], the “Relative Selectivity versus PI3Kalpha” value was greater than 10.
With CCn1c(-c2cnc(C)nc2)nc2c(O[C@H]3CCN(C(=O)N4CCC4C)C3)ncnc21 (single isomer, unassigned) [Compound 5-15, 9-ethyl-6-({(3S)-1-[((2R or 2S)-methylazetidin-1-yl)carbonyl]pyrrolidin-3-yl}oxy)-8-(2-methylpyrimidin-5-yl)-9H-purine] the “Relative Selectivity versus PI3Kalpha” value was greater than 10.
For CCn1c(N(C)CC(C)C)nc2c(O[C@H]3CCN(C(=O)OC(C)(C)C)C3)ncnc21 [Compound 13-1, tert-butyl (3S)-3-({9-ethyl-8-[methyl(2-methylpropyl)amino]-9H-purin-6-yl}oxy)pyrrolidine-1-carboxylate], the “Relative Selectivity versus PI3Kalpha” value was greater than 10.
In the case of CCn1c(N(C)CCO)nc2c(O[C@H]3CCN(C(=O)OC(C)(C)C)C3)ncnc21 [Compound 13-2, tert-butyl (3S)-3-({9-ethyl-8-[(2-hydroxyethyl)(methyl)amino]-9H-purin-6-yl}oxy)pyrrolidine-1-carboxylate], the “Relative Selectivity versus PI3Kalpha” value is reported as greater than 10.
CCn1c(N2CCC(S(C)(=O)=O)C2)nc2c(O[C@H]3CCN(C(=O)OC(C)(C)C)C3)ncnc21 (stereo partly drawn) [Compound 13-3, tert-butyl (3S)-3-({9-ethyl-8-[3-(methylsulfonyl)pyrrolidin-1-yl]-9H-purin-6-yl}oxy)pyrrolidine-1-carboxylate] was tested, and the “Relative Selectivity versus PI3Kalpha” value was greater than 10.
With CCn1c(N2CCC(C)CC2)nc2c(O[C@H]3CCN(C(=O)OC(C)(C)C)C3)ncnc21 [Compound 13-4, tert-butyl (3S)-3-{[9-ethyl-8-(4-methylpiperidin-1-yl)-9H-purin-6-yl]oxy}pyrrolidine-1-carboxylate] the “Relative Selectivity versus PI3Kalpha” value was greater than 10.
In the case of CCn1c(N2CCC(c3ccccc3)CC2)nc2c(O[C@H]3CCN(C(=O)OC(C)(C)C)C3)ncnc21 [Compound 13-5, tert-butyl (3S)-3-{[9-ethyl-8-(4-phenylpiperidin-1-yl)-9H-purin-6-yl]oxy}pyrrolidine-1-carboxylate], the “Relative Selectivity versus PI3Kalpha” value is reported as greater than 10.
CCn1c(N(C)CCOC)nc2c(O[C@H]3CCN(C(=O)OC(C)(C)C)C3)ncnc21 [Compound 13-6, tert-butyl (3S)-3-({9-ethyl-8-[(2-methoxyethyl)(methyl)amino]-9H-purin-6-yl}oxy)pyrrolidine-1-carboxylate] was tested, and the “Relative Selectivity versus PI3Kalpha” value was greater than 10.
With CCn1c(N(C)C(C)C)nc2c(O[C@H]3CCN(C(=O)OC(C)(C)C)C3)ncnc21 [Compound 13-7, tert-butyl (3S)-3-({9-ethyl-8-[methyl(1-methylethyl)amino]-9H-purin-6-yl}oxy)pyrrolidine-1-carboxylate] the “Relative Selectivity versus PI3Kalpha” value was greater than 10.
With CCn1c(N2CCC(C)C2)nc2c(O[C@H]3CCN(C(=O)OC(C)(C)C)C3)ncnc21 (stereo partly drawn) [Compound 13-8, tert-butyl (3S)-3-{[9-ethyl-8-(3-methylpyrrolidin-1-yl)-9H-purin-6-yl]oxy}pyrrolidine-1-carboxylate] the “Relative Selectivity versus PI3Kalpha” value was greater than 10.
For CCC(=O)N1CC[C@H](Oc2ncnc3c2nc(C2=CCOCC2)n3CC)C1 [Compound 14-1, 8-(3,6-dihydro-2H-pyran-4-yl)-9-ethyl-6-{[(3S)-1-propanoylpyrrolidin-3-yl]oxy}-9H-purine], the “Relative Selectivity versus PI3Kalpha” value was greater than 10.
For CCC(=O)N1CC[C@H](Oc2ncnc3c2nc(C2CC2)n3C)C1 [Compound 14-2, 8-cyclopropyl-9-methyl-6-{[(3S)-1-propanoylpyrrolidin-3-yl]oxy}-9H-purine], the “Relative Selectivity versus PI3Kalpha” value was greater than 10.
CCC(=O)N1CC[C@H](Oc2ncnc3c2nc(CC(C)C)n3CC)C1 [Compound 14-3, 9-ethyl-8-(2-methylpropyl)-6-{[(3S)-1-propanoylpyrrolidin-3-yl]oxy}-9H-purine] was tested, and the “Relative Selectivity versus PI3Kalpha” value was greater than 10.
CCC(=O)N1CC[C@H](Oc2ncnc3c2nc(CC(C)C)n3C)C1 [Compound 14-4, 9-methyl-8-(2-methylpropyl)-6-{[(3S)-1-propanoylpyrrolidin-3-yl]oxy}-9H-purine] was tested, and the “Relative Selectivity versus PI3Kalpha” value was greater than 10.
CCC(=O)N1CC[C@H](Oc2ncnc3c2nc(C(F)F)n3CC)C1 [Compound 14-5, 8-(difluoromethyl)-9-ethyl-6-{[(3S)-1-propanoylpyrrolidin-3-yl]oxy}-9H-purine] was tested, and the “Relative Selectivity versus PI3Kalpha” value was greater than 10.
For CCC(=O)N1CC[C@H](Oc2ncnc3c2nc(C(F)(F)F)n3CC)C1 [Compound 14-6, 9-ethyl-6-{[(3S)-1-propanoylpyrrolidin-3-yl]oxy}-8-(trifluoromethyl)-9H-purine], the “Relative Selectivity versus PI3Kalpha” value was greater than 10.
In the case of CCC(=O)N1CC[C@H](Oc2ncnc3c2nc(C(F)(F)F)n3C)C1 [Compound 14-7, 9-methyl-6-{[(3S)-1-propanoylpyrrolidin-3-yl]oxy}-8-(trifluoromethyl)-9H-purine], the “Relative Selectivity versus PI3Kalpha” value is reported as greater than 10.
For CCn1c(C(=O)NCC(F)(F)F)nc2c(O[C@H]3CCN(C(=O)OC(C)(C)C)C3)ncnc21 [Compound 15-1, tert-butyl (3S)-3-({9-ethyl-8-[(2,2,2-trifluoroethyl)carbamoyl]-9H-purin-6-yl}oxy)pyrrolidine-1-carboxylate], the “Relative Selectivity versus PI3Kalpha” value was greater than 10.
With CCn1c(C(=O)NCC(F)(F)F)nc2c(O[C@H]3CCN(C(=O)N4CC(OC)C4)C3)ncnc21 [Compound 15-2, (S)-9-ethyl-6-((1-(3-methoxyazetidine-1-carbonyl)pyrrolidin-3-yl)oxy)-N-(2,2,2-trifluoroethyl)-9H-purine-8-carboxamide] the “Relative Selectivity versus PI3Kalpha” value was greater than 10.
For CCn1c(C(=O)NCC2CC2)nc2c(O[C@H]3CCN(C(=O)OC(C)(C)C)C3)ncnc21 [Compound 15-3, tert-butyl (3S)-3-({8-[(cyclopropylmethyl)carbamoyl]-9-ethyl-9H-purin-6-yl}oxy)pyrrolidine-1-carboxylate], the “Relative Selectivity versus PI3Kalpha” value was greater than 10.
For CCn1c(C(=O)NC2CCCCC2)nc2c(O[C@H]3CCN(C(=O)OC(C)(C)C)C3)ncnc21 [Compound 15-4, tert-butyl (3S)-3-{[8-(cyclohexylcarbamoyl)-9-ethyl-9H-purin-6-yl]oxy}pyrrolidine-1-carboxylate], the “Relative Selectivity versus PI3Kalpha” value was greater than 10.
With CCNC(=O)c1nc2c(O[C@H]3CCN(C(=O)OC(C)(C)C)C3)ncnc2n1CC [Compound 15-5, tert-butyl (3S)-3-{[9-ethyl-8-(ethylcarbamoyl)-9H-purin-6-yl]oxy}pyrrolidine-1-carboxylate] the “Relative Selectivity versus PI3Kalpha” value was greater than 10.
